Here are results for two molecules from patent US20220305144A1, “RADIOLIGANDS FOR IMAGING THE ID01 ENZYME” (Bristol-Myers Squibb Company, priority 2016, published 2022).

“Also recorded” adds a separate entry of the source.

The target in series [1] is T1, IDO1 (Mus musculus, UniProt P28776).
T1 construct: The M109 tumor model is generated from a murine lung carcinoma cell line and expresses high levels of IDO1; from tissue; host or cells: subcutaneous M109 (murine lung carcinoma) tumours in BALB/c mice, imaged in vivo
Briefly: In-vivo PET imaging in M109 xenograft mice at baseline and after treatment with an IDO1 inhibitor (Example 7). As to conditions: 6, 60, 150 mg/kg PO once daily for 5 days. The protocol:
All mice underwent 2 separate PET scans. The first was a baseline PET scan before treatment began and the second was a post treatment scan with either the IDO1 inhibitor or vehicle. Treatment was administered PO once daily for 5 days with the last dose administered 2 hours prior to the post-treatment PET scan. […] There were no difference in tracer uptake at baseline in the M109 tumors between any of the groups.

In series [2] the target is T1, IDO1. Briefly: In-vivo PET imaging in M109 xenograft mice after treatment with the unlabeled IDO1 inhibitor (Example 6). As to conditions: 6, 60, 150 mg/kg PO once daily for 4 or 5 days.
Description: Dosing and treatment was established based on known pharmacological effect and treatment was administered PO, once daily, for 4 or 5 days. All animals were received a PET scan post-treatment with the last dose of (R)—N-(4-chlorophenyl)-2-((1S,4)-4-(6-fluoroquinolin-4-yl)cyclohexyl)propanamide or vehicle administered 2 hours before PET imaging. […] The exact injected dose was calculated by subtracting the decay corrected activity of the residual in the syringe after injection from the total measured dose in the syringe prior to injection. For PET imaging, the mice were anesthetized with isoflurane and placed into a custom animal holder with capacity for 4 animals. Body temperature was maintained with a heating pad and anesthesia was maintained with 1.5% isoflurane for the duration of the imaging PET imaging was performed on a dedicated microPET® F120™ scanner and a F220™ scanner (Siemens Preclinical Solutions, Knoxville, Tenn.). A 10 minute transmission scan was performed using a ^57Co source for attenuation correction of the final PET images and followed by a 10 min static emission scan. Either before or after PET imaging a CT scan (X-SPECT, Gamma Medica) or MRI scan (Bruker) was performed for anatomical orientation during image analysis. PET images were reconstructed using a maximum a posteriori (MAP) algorithm with attenuation correction using the collected transmission images. Image analysis was performed using the image analysis software AMIDE PET images were co-registered with their corresponding CT or MRI images and regions of interest (ROIs) were manually drawn around tumor boundaries and muscle using the CT or MRI images as the anatomical guidelines. The outcome measure percentage injected dose/g tissue (% ID/g) was obtained from the ROIs volume and the calculated injected activity decay corrected to the beginning of the emission scan.
The target in series [3] is T1, IDO1. Description: Comparison of tracer uptake in high (M109) and low (CT26) IDO1 expressing tumor models (Example 8). As to conditions: BALB/c mice given vehicle for 5 days, tracer i.v. 1 hour before PET, CT26 low IDO1 expression. Format: in vivo. From the text: In order to compare the ability to differentiate between differences in expression levels of IDO1 we imaged an additional mouse model carrying CT26 tumors. The CT26 tumor model is generated from a murine colorectal carcinoma cell line and expresses lower levels of IDO1 than the M109 model.

A short description of series [4]: PET biodistribution in non-human primate (Example 9). Format: in vivo. As to conditions: male cynomolgus monkey, 1.2 mCi i.v., 5 full body PET scans. The procedure:
A male cynomolgus monkey (3.5 kg) was anesthetized via a cocktail of 0.02 mg/kg Atropine, and 5 mg/kg Telazol, 0.01 mg/kg Buprenorphine and maintained with 1-2% isoflurane for the duration of the study. Body temperature was maintained at ˜37° C. using an external circulating water bed to prevent hypothermia during imaging. The monkey was intubated and a saphenous vein catheter was inserted to allow for radiotracer injection. […] The axial field of view in the PET system is 7.6 cm. With this limitation, images were acquired over 7 distinct bed positions to cover the full body with an overlap of 1.5 cm between beds. Prior to emission imaging a 10 minute transmission image was acquired for each bed position for attenuation correction of the final PET images, immediately following collection of the final transmission image, the bed was returned to position 1 and the radiotracer was injected via the saphenous vein catheter concurrently with the start of the first emission scan. For emission, a total of 5 full body scans were acquired, using 5 min emission acquisitions for each bed position. Images were reconstructed using a MAP algorithm with attenuation correction. Bed positions were stitched together for a full body image using a stitching software tool developed in house and PET and MRI images were co-registered using AMIDE software. The final images were visually inspected to note areas of high tracer accumulation and evaluate biodistribution and background signal.

Setting [5] is: listed as 18F—(R)—N-(4-chlorophenyl)-2-((1S,4S)-4-(6-fluoroquinolin-4-yl)cyclohexyl)propan.
[6] abbreviates: listed as [^18F](R)—N-(4-chlorophenyl)-2-((1S,4S)-4-(6-fluoroquinolin-4-yl)cyclohexyl)prop.

T1 sequence (P28776 whole entry): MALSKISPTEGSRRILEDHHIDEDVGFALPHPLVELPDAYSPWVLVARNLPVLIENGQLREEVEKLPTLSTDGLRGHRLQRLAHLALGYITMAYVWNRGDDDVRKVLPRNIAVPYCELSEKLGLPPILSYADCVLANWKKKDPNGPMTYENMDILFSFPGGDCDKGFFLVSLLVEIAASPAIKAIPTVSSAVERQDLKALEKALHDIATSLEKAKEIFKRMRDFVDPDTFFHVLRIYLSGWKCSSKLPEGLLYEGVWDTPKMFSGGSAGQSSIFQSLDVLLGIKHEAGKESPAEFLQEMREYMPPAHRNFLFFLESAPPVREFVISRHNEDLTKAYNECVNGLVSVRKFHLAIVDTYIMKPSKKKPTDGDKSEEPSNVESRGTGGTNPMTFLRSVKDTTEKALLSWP

For `C[C@@H](C(=O)Nc1ccc(Cl)cc1)C1CCC(c2ccnc3ccc(F)cc23)CC1` (stereo partly drawn) [(R)—N-(4-chlorophenyl)-2-((1S,4S)-4-(6-fluoroquinolin-4-yl)cyclohexyl)propanamide], in series [1], the “Tracer uptake in muscle reference tissue, baseline vs post-treatment” value is on record as “unaffected by treatment”. Moreover, the “Tracer uptake in M109 tumors after treatment, compared to vehicle group and baseline” value in series [1] (last dose 2 hours before post-treatment PET scan) was “dose-dependent decrease in tracer uptake; also recorded: dose-dependent displacement of the tracer”. For the same molecule, in series [2] (last dose 2 hours before PET, [18F] tracer i.v. 1 hour before imaging), the “Tracer uptake (% ID/g) in M109 tumors compared to vehicle” value is recorded as “dose-dependent decrease in tracer uptake; also recorded: dose-dependent displacement of the tracer”. Besides, the “Tracer uptake in muscle reference tissue” value in series [2] (muscle used as reference region for non-specific binding) was “no effect on the tracer; also recorded: no effect on the uptake in muscle tissue”.
`C[C@@H](C(=O)Nc1ccc(Cl)cc1)[C@H]1CC[C@@H](c2ccnc3ccc([18F])cc32)CC1` [Example 5, [^18F](R)—N-(4-chlorophenyl)-2-((1S, 4S)-4-(6-fluoroquinolin-4-yl)cyclohexyl)propanamide]: in series [3], the “Tracer uptake (% ID/g) in M109 tumors compared to CT26 tumors” value is reported as “higher % ID/g was observed in M109 mouse xenograft tumors compared to % ID/g in CT26 mouse xenograft tumors; also recorded: increased in M109 tumors”. Moreover, the “Areas of tracer accumulation (biodistribution)” value in series [4] (setting [5]) is “accumulated in expected clearance organs such as liver and gallbladder”; in series [4] (setting [6]), “accumulated in the liver and gallbladder”. The “Background signal in the rest of the body” value in series [4] (setting [5]) was “little to no background”; in series [4] (setting [6]), “minimal”.
